The results in this text go back to patent US12600725B2 (Memorial Sloan-Kettering Cancer Center, priority 2013, dated 2026).

Where “and” joins values, the source holds several entries; their conditions need not be identical. Equal values may be shown once.

One assay concerns the target Hsp90β (Homo sapiens, UniProt P08238).
The target of the next assay is T1, Trap-1 (Homo sapiens, UniProt Q12931).
T1 sequence (Q12931 60-704): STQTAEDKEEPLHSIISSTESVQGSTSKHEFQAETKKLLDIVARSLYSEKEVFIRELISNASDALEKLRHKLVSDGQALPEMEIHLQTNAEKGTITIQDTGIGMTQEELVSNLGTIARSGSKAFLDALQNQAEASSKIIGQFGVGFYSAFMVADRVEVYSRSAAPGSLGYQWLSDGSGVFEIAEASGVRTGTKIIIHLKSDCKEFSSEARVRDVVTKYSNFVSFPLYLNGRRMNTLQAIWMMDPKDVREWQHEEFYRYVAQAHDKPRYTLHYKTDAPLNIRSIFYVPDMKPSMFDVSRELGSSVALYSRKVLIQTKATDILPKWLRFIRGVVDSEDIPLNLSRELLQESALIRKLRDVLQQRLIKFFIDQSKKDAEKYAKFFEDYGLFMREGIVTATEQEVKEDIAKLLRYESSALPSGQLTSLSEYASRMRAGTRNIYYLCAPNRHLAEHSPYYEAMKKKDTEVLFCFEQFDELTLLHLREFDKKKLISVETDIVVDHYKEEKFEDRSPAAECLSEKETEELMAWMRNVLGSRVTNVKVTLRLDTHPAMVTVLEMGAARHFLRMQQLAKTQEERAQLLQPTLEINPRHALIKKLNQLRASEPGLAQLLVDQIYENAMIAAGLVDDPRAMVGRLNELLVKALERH
The experiment in a line: biochemical.

Another assay has as its target Grp94 (Canis lupus familiaris, UniProt P41148). The settings on record: read-out: Grp94; FP competition, 6 nM Cy3B-GM, 10 nM protein, 4° C. for 24 h.
For the next assay, the target named is Hsp90α (Homo sapiens, UniProt P07900). Put plainly: biochemical. The settings on record: FP competition, 6 nM Cy3B-GM, 10 nM protein, 4° C. for 24 h.

Hsp90β, sequence (P08238 whole entry): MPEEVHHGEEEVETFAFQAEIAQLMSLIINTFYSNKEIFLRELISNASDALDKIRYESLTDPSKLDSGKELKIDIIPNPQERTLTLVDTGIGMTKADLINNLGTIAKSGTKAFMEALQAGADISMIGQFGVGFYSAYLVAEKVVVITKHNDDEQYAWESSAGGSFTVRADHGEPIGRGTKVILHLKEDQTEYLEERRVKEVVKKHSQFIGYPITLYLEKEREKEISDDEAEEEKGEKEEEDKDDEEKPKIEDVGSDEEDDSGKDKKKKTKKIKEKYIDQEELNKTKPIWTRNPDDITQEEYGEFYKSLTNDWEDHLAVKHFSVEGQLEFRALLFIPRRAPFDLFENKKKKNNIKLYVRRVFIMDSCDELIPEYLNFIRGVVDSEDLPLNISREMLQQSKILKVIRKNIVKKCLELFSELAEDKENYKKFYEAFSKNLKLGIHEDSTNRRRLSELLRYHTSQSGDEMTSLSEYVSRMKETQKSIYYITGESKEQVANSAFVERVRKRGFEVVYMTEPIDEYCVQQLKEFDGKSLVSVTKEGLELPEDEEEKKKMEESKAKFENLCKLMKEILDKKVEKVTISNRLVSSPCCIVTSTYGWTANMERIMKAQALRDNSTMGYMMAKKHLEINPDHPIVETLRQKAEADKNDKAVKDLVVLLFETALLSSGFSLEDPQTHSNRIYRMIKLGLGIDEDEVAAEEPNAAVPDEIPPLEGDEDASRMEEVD
Grp94, sequence (P41148 with tags, fused parts or gaps DELINS287-327GGGG): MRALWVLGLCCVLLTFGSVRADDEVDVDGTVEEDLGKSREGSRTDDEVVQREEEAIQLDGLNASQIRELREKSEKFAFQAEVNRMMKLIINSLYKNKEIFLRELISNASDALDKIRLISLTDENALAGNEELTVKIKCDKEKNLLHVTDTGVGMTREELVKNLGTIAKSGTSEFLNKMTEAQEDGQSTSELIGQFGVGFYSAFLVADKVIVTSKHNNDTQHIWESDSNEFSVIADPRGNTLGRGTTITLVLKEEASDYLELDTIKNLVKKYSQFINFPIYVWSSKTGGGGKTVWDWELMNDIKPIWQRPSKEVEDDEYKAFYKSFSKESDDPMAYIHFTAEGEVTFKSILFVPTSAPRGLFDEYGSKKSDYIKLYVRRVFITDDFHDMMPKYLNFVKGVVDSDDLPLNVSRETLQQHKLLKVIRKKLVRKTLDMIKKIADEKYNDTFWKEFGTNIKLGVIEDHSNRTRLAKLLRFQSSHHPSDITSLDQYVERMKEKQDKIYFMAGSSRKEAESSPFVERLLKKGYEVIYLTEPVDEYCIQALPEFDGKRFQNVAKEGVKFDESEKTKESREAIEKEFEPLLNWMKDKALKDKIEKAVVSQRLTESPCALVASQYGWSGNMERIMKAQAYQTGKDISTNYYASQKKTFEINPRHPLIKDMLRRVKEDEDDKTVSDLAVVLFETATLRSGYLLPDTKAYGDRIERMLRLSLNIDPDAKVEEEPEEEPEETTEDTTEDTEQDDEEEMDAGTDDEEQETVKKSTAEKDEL

With `C#CCCCn1c(Sc2ccc(Br)cc2CC)nc2c(N)ncnc21` [PDP-I-54-N9], the IC50 was greater than 50 µM against Hsp90β; 4.9 ± 0.27 µM at Trap-1; 0.66 ± 0.1 µM on Grp94; 13.9 µM and 14 µM at Hsp90α.

`C#CCCCn1c(Sc2ccccc2CO)nc2c(N)ncnc21` [PU-H34]: the results for the IC50 against Hsp90β, on Grp94 and at Hsp90α were greater than 100 µM, 29 ± 9 µM and greater than 100 µM, respectively.

`C#CCCCn1c(Sc2ccc(Br)cc2Cl)nc2c(N)ncnc21` [PDP-I-61-N9]: the IC50 against Hsp90β is greater than 50 µM; against Trap-1, 2.62 ± 0.28 µM; on Grp94 it was 0.28 ± 0.06 µM.

As for `C#CCCCn1cnc(N)c2nc(Sc3ccc(Cl)cc3Cl)nc1-2` [PU-H38], the results for the IC50 against Hsp90β, on Grp94 and at Hsp90α were greater than 500 µM, 2.37 ± 0.79 µM and greater than 500 µM, respectively.

For `C#CCCCn1cnc(N)c2nc(Sc3ccccc3OC)nc1-2` [PU-H46], the IC50 on Hsp90β, on Grp94 and at Hsp90α was greater than 100 µM in each case.

On to `CCCCn1c(Cc2ccc(OC)cc2)nc2c(N)ncnc21` [PU1], for which the IC50 against Hsp90β was 92 ± 2 µM; at Grp94, 3.2 ± 0.4 µM; at Hsp90α, 110 ± 20 µM.

For `C#CCCCn1c(Sc2cc(Cl)cc(Br)c2)nc2c(N)ncnc21` [PDP-I-53-N9], the IC50 against Trap-1 was greater than 100 µM; on Grp94, 0.22 ± 0.02 µM.

As to `C#CCCCn1cnc(N)c2nc(Sc3cc(Cl)ccc3C(F)(F)F)nc1-2` [PU-H53], the figures for the IC50 at Hsp90β, at Grp94 and on Hsp90α were greater than 100 µM, 200 µM and greater than 100 µM, respectively.

Consider `C#CCCCn1c(Sc2cc(Cl)cc(Cl)c2Cl)nc2c(N)ncnc21` [PDP-125A], for which the IC50 was greater than 100 µM at Hsp90β, 6.04 ± 0.55 µM against Trap-1, 0.19 ± 0.01 µM on Grp94 and greater than 100 µM at Hsp90α.

For `N#CCCCn1cnc(N)c2nc(Sc3cc(Cl)cc(Cl)c3)nc1-2` [PDP-93B, 4-(6-Amino-8-((3,5-dichlorophenyl)thio)-3H-purin-3-yl)butanenitrile], the IC50 against Hsp90β, against Trap-1, on Grp94 and on Hsp90α was greater than 100 µM each time.

As to `C#CCCCn1cnc(N)c2nc(Sc3cc(Cl)cc(Cl)c3Cl)nc1-2` [PDP-125B], the IC50 against Hsp90β was greater than 100 µM; at Trap-1 it was 58.8 µM; on Grp94 it was 5.21 µM; at Hsp90α, greater than 100 µM.

Consider `C#CCCCn1cnc(N)c2nc(Sc3ccccc3CO)nc1-2` [PU-H35], for which the IC50 at Hsp90β, at Grp94 and on Hsp90α was greater than 100 µM throughout.

As to `C#CCCCn1cnc(N)c2nc(Sc3c(C)cc(C)cc3C)nc1-2` [PU-H37], the results for the IC50 on Hsp90β, on Grp94 and at Hsp90α were greater than 100 µM, 20 ± 5 µM and greater than 100 µM, respectively.

As to `C#CCCCn1c(Sc2ccccc2Cl)nc2c(N)ncnc21` [PU-H6], the IC50 on Hsp90β is greater than 100 µM; at Grp94, 0.35 ± 0.05 µM; on Hsp90α, greater than 100 µM.

As for `C#CCCCn1cnc(N)c2nc(Sc3cc(C)cc(C)c3)nc1-2` [PU-H45], the IC50 on Hsp90β, on Grp94 and at Hsp90α was greater than 100 µM in each case.

Take `C#CCCCn1c(Sc2ccccc2OC)nc2c(N)ncnc21` [PU-H5]: the IC50 at Hsp90β is 110 ± 120 µM; at Grp94, 6.2 ± 2.5 µM.

In the case of `C#CCCCn1cnc(N)c2nc(Sc3cc(Br)ccc3OC)nc1-2` [PU-H63], the IC50 against Hsp90β is 2.5 ± 0.2 µM; at Grp94, 2.3 ± 0.1 µM; at Hsp90α, 5.9 ± 0.5 µM.

For the compound `C#CCCCn1cnc(N)c2nc(Sc3cc(C)ccc3C)nc1-2` [PU-H29], the IC50 against Hsp90β is greater than 100 µM; at Grp94, 185 ± 15 µM; on Hsp90α it was greater than 100 µM.

Take `CC(C)(O)CNCCn1c(Sc2ccc(Cl)cc2Cl)nc2c(N)ncnc21` [HJP-V-85, 1-((2-(6-Amino-8-((2,4-dichlorophenyl)thio)-9H-purin-9-yl)ethyl)amino)-2-methylpropan-2-ol]: the IC50 against Trap-1 was determined as 2.6 µM; at Grp94, 2.3 µM; on Hsp90α, 9.2 µM.

Regarding `C#CCCCn1cnc(N)c2nc(Sc3ccccc3Cl)nc1-2` [PU-H47], the IC50 on Hsp90β and on Hsp90α was greater than 100 µM throughout.

As to `Nc1ncnc2c1nc(Sc1cc(Cl)cc(Cl)c1)n2CCCC(F)(F)F` [PDP-I-15-N9, 8-((3,5-Dichlorophenyl)thio)-9-(4,4,4-trifluorobutyl)-9H-purin-6-amine], the IC50 against Trap-1 is greater than 50 µM; at Grp94, 0.46 ± 0.04 µM.

Consider `C#CCCCn1cnc(N)c2nc(Sc3cc(Cl)c(Cl)cc3Cl)nc1-2` [PU-H52], for which the values for the IC50 against Hsp90β, on Grp94 and on Hsp90α were greater than 100 µM, 2.08 ± 1.49 µM and greater than 100 µM, respectively.

On to `C#CCCCn1c(Sc2ccccc2OC(F)(F)F)nc2c(N)ncnc21` [PU-H9], for which the IC50 was greater than 100 µM against Hsp90β, 1.4 ± 0.2 µM at Grp94 and greater than 100 µM at Hsp90α.

`C#CCCCn1c(Sc2ccc(OC)cc2)nc2c(N)ncnc21` [PU-H1]: the IC50 on Hsp90β is greater than 100 µM; on Grp94 it was 1.13 ± 0.2 µM; on Hsp90α it was greater than 100 µM.

For `C#CCCCn1cnc(N)c2nc(Sc3cc(Cl)ccc3Cl)nc1-2` [PU-H43], the values for the IC50 at Hsp90β, at Grp94 and at Hsp90α were greater than 100 µM, 35.3 ± 5 µM and greater than 100 µM, respectively.

As for `CC(C)(CO)NCCn1c(Sc2ccc(Cl)cc2Cl)nc2c(N)ncnc21` [HJP-V-84, 2-((2-(6-Amino-8-((2,4-dichlorophenyl)thio)-9H-purin-9-yl)ethyl)amino)-2-methylpropan-1-ol], the IC50 against Trap-1 was found to be 4.4 µM; on Grp94 it was 1.9 µM; at Hsp90α, 28.9 µM.

Turning to `CC(Br)CCCn1cnc(N)c2nc(Sc3cc(Cl)cc(Cl)c3)nc1-2` (stereo not shown) [PDP-99B, 3-(4-Bromopentyl)-8-((3,5-dichlorophenyl)thio)-3H-purin-6-amine], the IC50 was greater than 100 µM on Trap-1, greater than 10 µM on Grp94 and greater than 100 µM at Hsp90α.

Regarding `Nc1ncnc2c1nc(Sc1ccc(Cl)cc1Cl)n2CCc1ccccn1` [HJP-V-93, 8-((2,4-Dichlorophenyl)thio)-9-(2-(pyridin-2-yl)ethyl)-9H-purin-6-amine], the IC50 on Grp94 was 1.9 µM; on Hsp90α, greater than 50 µM.

With `CC(C)NCCCn1c(Sc2ccc(Cl)cc2Cl)nc2c(N)nccc21` [HJP-VI-101, 2-((2,4-dichlorophenyl)thio)-1-(3-(isopropylamino)propyl)-1H-imidazo[4,5-c]pyridin-4-amine], the IC50 at Grp94 is greater than 5 µM; at Hsp90α, 9.2 µM.

In the case of `Nc1ncnc2c1nc(Sc1cc(Cl)cc(Cl)c1)n2Cc1ccccc1` [PDP-107A, 9-Benzyl-8-((3,5-dichlorophenyl)thio)-9H-purin-6-amine], the IC50 at Trap-1 is greater than 50 µM; at Grp94 it was greater than 5 µM; at Hsp90α it was greater than 100 µM.

On to `C#CCCCn1cnc(N)c2nc(Sc3ccccc3OC(F)(F)F)nc1-2` [PU-H48], for which the IC50 against Hsp90β was greater than 100 µM; at Grp94 it was 106 µM; at Hsp90α, greater than 100 µM.

With `C#CCCCn1c(Sc2cc(Cl)nc(Cl)c2)nc2c(N)ncnc21` [HJP-VI-66, 8-((2,6-dichloropyridin-4-yl)thio)-9-(pent-4-yn-1-yl)-9H-purin-6-amine], the IC50 was 1.9 µM on Grp94 and greater than 5 µM on Hsp90α.

Take `C#CCCCn1c(Sc2cc(Cl)ccc2C(F)(F)F)nc2c(N)ncnc21` [PU-H2]: the IC50 amounted to 6.5 ± 2.3 µM on Hsp90β and 0.5 ± 0.2 µM at Grp94.

For the compound `C#CCCCn1c(Sc2c(C)cc(C)cc2C)nc2c(N)ncnc21` [PU-H36], the IC50 against Hsp90β is greater than 250 µM; on Grp94 it was 2.1 ± 0.56 µM; at Hsp90α, greater than 250 µM.

Turning to `CC(C)=Cc1cc(Cl)cc(Sc2nc3c(N)ncnc3n2CCCNC(C)C)c1` [HJP-VI-62, 8-((3-chloro-5-(2-methylprop-1-en-1-yl)phenyl)thio)-9-(3-(isopropylamino)propyl)-9H-purin-6-amine], the results for the IC50 at Grp94 and on Hsp90α were 0.28 µM and greater than 50 µM, respectively.

In the case of `C#CCCCn1c(C(=O)c2ccc(Cl)cc2Cl)nc2c(N)ncnc21` [HJP-V-37T, (6-Amino-9-(pent-4-yn-1-yl)-9H-purin-8-yl)(2,4-dichlorophenyl)methanone], the figures for the IC50 at Grp94 and at Hsp90α were 0.13 to 0.17 µM and greater than 25 µM, respectively.

In the case of `C#CCCCn1c(Sc2ccc(C#N)c(C(F)(F)F)c2)nc2c(N)ncnc21` [HJP-III-29, 4-((6-Amino-9-(pent-4-yn-1-yl)-9H-purin-8-yl)thio)-2-(trifluoromethyl)benzonitrile], the IC50 on Grp94 was 2.41 µM; on Hsp90α, 4.51 µM.

Take `C#CCCCn1c(Sc2ccc(OC)cc2OC)nc2c(N)ncnc21` [PU-H8]: the IC50 against Hsp90β was determined as 22.4 ± 2.8 µM; at Grp94, 34.5 ± 3.5 µM; at Hsp90α it was 47.4 ± 2.2 µM.

As to `CC(C)NCCCn1c(Sc2ccc(Cl)cc2F)nc2c(N)ncnc21` [HJP-VI-23, 8-((4-chloro-2-fluorophenyl)thio)-9-(3-(isopropylamino)propyl)-9H-purin-6-amine], the results for the IC50 at Grp94 and on Hsp90α were 1.5 µM and greater than 50 µM, respectively.
